The target of experiment [1] is T1, Muscarinic acetylcholine receptor M1 (Homo sapiens) (UniProt P11229).
T1 sequence (whole entry): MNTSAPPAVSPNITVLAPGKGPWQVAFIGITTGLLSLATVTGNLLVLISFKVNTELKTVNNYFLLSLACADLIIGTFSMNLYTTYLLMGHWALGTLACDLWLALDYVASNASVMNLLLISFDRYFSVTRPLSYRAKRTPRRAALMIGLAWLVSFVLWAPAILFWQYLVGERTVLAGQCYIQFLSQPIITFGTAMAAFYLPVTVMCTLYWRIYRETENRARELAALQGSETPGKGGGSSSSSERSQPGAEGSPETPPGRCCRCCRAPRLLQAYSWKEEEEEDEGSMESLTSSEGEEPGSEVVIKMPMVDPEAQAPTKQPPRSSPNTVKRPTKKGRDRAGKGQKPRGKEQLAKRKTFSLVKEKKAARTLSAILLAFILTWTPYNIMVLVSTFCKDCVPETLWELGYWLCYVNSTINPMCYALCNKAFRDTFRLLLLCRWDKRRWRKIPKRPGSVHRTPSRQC
Kind of experiment: Percent stimulation of phospholipid hydrolysis in BHK cells transfected with human Muscarinic acetylcholine receptor M1 compared to maximal stimulation of carbachol at a dose of 100 uM. It is filed as functional, cell-based.

Experiment [2] deals with T2, Muscarinic acetylcholine receptor M1 (Rattus norvegicus, UniProt P08482).
T2 sequence (P08482 whole entry): T1 sequence (whole entry) with A5V, T254S, P309S, R320K, A337G, I413V
Kind of experiment: In vitro binding affinity towards Muscarinic acetylcholine receptor M1 by the displacement of [3H]oxotremorine-M in rat brain membranes. In kind it is cell membranes. (In general: In a radioligand displacement assay an active substance lowers the binding of a labelled ligand.)

Experiment [3] concerns the target T2, Muscarinic acetylcholine receptor M1. Briefly: In vitro binding affinity towards Muscarinic acetylcholine receptor M1 by the displacement of [3H]pirenzepine in rat cerebral cortical membranes. It is filed as cell membranes, Membrane.

For 16 compounds, Stimulation and IC50 results are on record in ChEMBL document CHEMBL1127972 (Bioorg Med Chem Lett, 1994).

Substitutions are numbered along the chain they refer to.

For orientation: IC50 means the concentration needed to halve the response being measured. Low readings indicate greater potency, high ones weaker potency. `CCC#CCCOc1nsnc1C1=CCC(C)N(C)C1` (stereo not drawn) had a Stimulation in experiment [1] of 12%. Moreover, the concentration for half-maximal inhibition (IC50) in experiment [2] was 0.006 µM; in experiment [3], 0.005 µM.
For `CCOc1nsnc1C1=CCC(C)N(C)C1` (stereo not drawn), in that order: 10%, 0.011 µM and 0.024 µM.
In the case of `CCCCCCOc1nsnc1C1=CCC(C)N(C)C1` (stereo not drawn), the Stimulation in experiment [1] came out at 27%. Further, the IC50 was 0.006 µM in experiment [2] and 0.005 µM in experiment [3].
Regarding `COc1nsnc1C1=CC(C)CN(C)C1` (stereo not drawn), the results for the 50% inhibitory concentration (IC50) in experiment [2] and in experiment [3] were 0.6 µM and 0.58 µM, respectively.
For `CCCCCCOc1nsnc1C1=CC2(C)CCCCC2(C)N(C)C1` (stereo not drawn), in that order: 1 µM and 1.23 µM.
With `COc1nsnc1C1=CCCN(C)C1`, the Stimulation in experiment [1] turned out to be 7%.
Compound `CCCCCCOc1nsnc1C1=CC(C)CN(C)C1` (stereo not drawn) came in with a Stimulation in experiment [1] of 12%. Further, the IC50 in experiment [2] was found to be 0.014 µM; in experiment [3], 0.007 µM.
In experiment [1], `CCCCCCOc1nsnc1C1=CCCN(C)C1` showed a Stimulation of 70%.
The compound `CCCCOc1nsnc1C1=CCC(C)N(C)C1` (stereo not drawn) displayed a Stimulation in experiment [1] of 9%. The 50% inhibitory concentration (IC50) was 0.009 µM in experiment [2] and 0.008 µM in experiment [3].
As to `CCCCCCOc1nsnc1C1=C(C)CCN(C)C1`, the IC50 amounted to 0.1 µM in experiment [2] and 0.112 µM in experiment [3].
For `CCCCCCOc1nsnc1C1=CCCN(C)C1C` (stereo not drawn), in that order: 0.083 µM and 0.048 µM.
For `COc1nsnc1C1=C(C)CCN(C)C1`, in that order: 1 µM and 1 µM.
In the case of `CCCOc1nsnc1C1=CCCN(C)C1`, in experiment [1], the Stimulation worked out at 25%. Moreover, the concentration for half-maximal inhibition (IC50) in experiment [2] stood at 0.002 µM.
Regarding `CCCCCOc1nsnc1C1=CCC(C)N(C)C1` (stereo not drawn), the Stimulation in experiment [1] came out at 18%. The values for the IC50 in experiment [2] and in experiment [3] were 0.009 µM and 0.005 µM, respectively.
For `CCCOc1nsnc1C1=CC(C)CN(C)C1` (stereo not drawn), in that order: 6%, 0.017 µM and 0.015 µM.
For `C=CCCCOc1nsnc1C1=CCC(C)N(C)C1` (stereo not drawn), in that order: 12%, 0.01 µM and 0.008 µM.
